From ChEMBL document CHEMBL1139174, “Modeling of human ghrelin receptor (hGHS-R1a) in its close state and validation by molecular docking” (Bioorg Med Chem, 2007)
Square brackets hold non-standard residues; d marks the D form. Peptide text beside a SMILES is read from it. d(hPhe) = N[C@H](CCc1ccccc1)C(=O)O; Aib = CC(C)(N)C(=O)O

molecular target: Growth hormone secretagogue receptor type 1 (Homo sapiens, UniProt Q92847); test: Agonist activity at human GHS-R1; format: functional; settings: not given
Sequence (Q92847 whole entry): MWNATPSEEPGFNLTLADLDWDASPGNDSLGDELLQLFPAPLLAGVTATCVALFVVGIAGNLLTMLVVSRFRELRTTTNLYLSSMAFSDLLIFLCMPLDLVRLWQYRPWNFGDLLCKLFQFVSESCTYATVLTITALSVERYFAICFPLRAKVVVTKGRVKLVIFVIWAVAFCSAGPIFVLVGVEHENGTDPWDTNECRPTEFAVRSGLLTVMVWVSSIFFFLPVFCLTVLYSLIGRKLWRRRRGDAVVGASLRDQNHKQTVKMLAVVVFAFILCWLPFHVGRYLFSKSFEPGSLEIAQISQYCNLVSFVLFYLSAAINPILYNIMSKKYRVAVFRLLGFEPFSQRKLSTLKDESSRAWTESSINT

Q: `CC(C)(N)C(=O)N[C@H](CCCc1ccccc1)C(=O)N1CCC2(CC1)C[S+]([O-])c1ccccc12` (some centres not stated) was tested. Which “Log EC50” value did it give?
A: -8.6

same assay, conditions: read-out: EC50

Q: Which EC50 does the source give for `O=C(N[C@H](Cc1ccc2ccccc2c1)C(=O)N[C@@H](CO)Cc1c[nH]c2ccccc12)C1CCNCC1` here?
A: 10 nM

Q: For `CNC(C)(C)C/C=C/C(=O)N(C)[C@H](Cc1ccc2ccccc2c1)C(=O)N(C)CCc1ccccc1`, which EC50 is on record?
A: 3 nM

Q: `NCCNC(=O)[C@@H](Cc1cccc2ccccc12)NC(=O)CCN1C(=O)CCS(=O)(=O)c2ccccc21` was tested. Which EC50 did it give?
A: 10 nM

Q: With `NCC(O)CNC(=O)[C@@H](Cc1cccc2ccccc12)NC(=O)CCCN1C(=O)CCSc2ccccc21` (some centres not stated) as the compound, how does the EC50 read?
A: 1 nM

Q: With `NCCCCNC(=O)[C@@H](Cc1ccc2ccccc2c1)NC(=O)[C@@H](Cc1ccc2ccccc2c1)NC(=O)C1CCNCC1` as the compound, how does the EC50 read?
A: 17 nM

Q: Which EC50 does the source give for `NC(=O)[C@@H](NC(=O)[C@@H](Cc1ccc2ccccc2c1)NC(=O)[C@@H](Cc1ccc2ccccc2c1)NC(=O)C1CCNCC1)c1ccccc1` here?
A: 0.28 nM

Q: `O=C(N[C@H](Cc1ccc2ccccc2c1)C(=O)N[C@@H](CO)Cc1ccc2ccccc2c1)C1CCNCC1` was tested. Which EC50 did it give?
A: 1.8 nM

Q: Which EC50 does the source give for `COC(=O)CS(=O)(=O)Nc1ccccc1N1CCN(C(=O)[C@@H](CCCc2ccccc2)NC(=O)C(C)(C)N)CC1` here?
A: 4.5 nM

Q: For `CCNC(=O)[C@]1(Cc2ccccc2)CCCN(C(=O)[C@@H](Cc2c[nH]c3ccccc23)NC(=O)C(C)(C)N)C1`, which EC50 is on record?
A: 0.8 nM

Q: `CC(C)(N)C(=O)N[C@H](CCCc1ccccc1)C(=O)N1CCN(c2ccccc2NS(=O)(=O)CC(=O)O)CC1` was tested. Which EC50 did it give?
A: 2.3 nM

Q: For `CC(C)(N)C(=O)N[C@H](CCCc1ccccc1)C(=O)N1CCN(c2ccccc2NS(C)(=O)=O)CC1`, which EC50 is on record?
A: 6.3 nM

Q: `CC(C)S(=O)(=O)Nc1ccccc1N1CCN(C(=O)[C@@H](CCCc2ccccc2)NC(=O)C(C)(C)N)CC1` was tested. Which EC50 did it give?
A: 2.8 nM

Q: How did the EC50 turn out when `Cc1ccccc1N1CCN(C(=O)[C@@H](CCCc2ccccc2)NC(=O)C(C)(C)N)CC1` was run?
A: 100 nM

Q: How did the EC50 turn out when `CCN(CC)CCN1C(=O)[C@@](O)(c2ccc3ccccc3c2)c2c(Br)cccc21` was run?
A: 77 nM

Q: How did the EC50 turn out when `CCN(CC)CCN1C(=O)[C@@](O)(c2ccc3ccccc3c2)c2c1cc(C#CCCC(=O)N1CCOCC1)cc2C(F)(F)F` was run?
A: 30 nM

Q: How did the EC50 turn out when `CCN(CC)CCN1C(=O)[C@@](O)(c2ccc3ccccc3c2)c2c1cc(C#CCCC(=O)N(C)C)cc2C(F)(F)F` was run?
A: 30 nM

Q: With `CCN(CC)CCN1C(=O)[C@@](O)(c2ccc3ccccc3c2)c2c1cc(C(N)=O)cc2C(F)(F)F` as the compound, how does the EC50 read?
A: 18 nM

Q: Which EC50 does the source give for `CCOC(=O)[C@]1(Cc2ccccc2)CCCN(C(=O)[C@@H](Cc2c[nH]c3ccccc23)NC(=O)C(C)(C)N)C1` here?
A: 1.6 nM

Q: With `CCOC(=O)[C@@H](CCc1ccccc1)NC(=O)[C@@H](Cc1c[nH]c2ccccc12)NC(=O)C(C)(C)N` (H-[Aib]-[dW]-[d(hPhe)]-OEt) as the compound, how does the EC50 read?
A: 3 nM

same assay, conditions: read-out: Log EC50 (converted)

Q: Which EC50 does the source give for `NCC(O)CNC(=O)[C@@H](Cc1cccc2ccccc12)NC(=O)CCCN1C(=O)CCSc2ccccc21` (some centres not stated) here?
A: 2 nM

Q: With `Cc1ccccc1N1CCN(C(=O)[C@@H](CCCc2ccccc2)NC(=O)C(C)(C)N)CC1` as the compound, how does the EC50 read?
A: 14.1 nM
